Measured values: ChEMBL document CHEMBL1201862, “PubChem BioAssay data set” (2004)
Active and inactive are the calls of the source. Cut-off read from the data, not from the text of the source, for most assays here: actives have a measured IC50 and inactives only a lower limit.

How the values were obtained:
Format in all cases: functional
Caspase-3 = molecular target: T1, Caspase-3 (Homo sapiens, UniProt P42574);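 note: Dose-response selectivity test against caspase-3 for candidate inhibitors of sentrin-specific proteases (SENPs)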
T1 sequence (P42574 whole entry): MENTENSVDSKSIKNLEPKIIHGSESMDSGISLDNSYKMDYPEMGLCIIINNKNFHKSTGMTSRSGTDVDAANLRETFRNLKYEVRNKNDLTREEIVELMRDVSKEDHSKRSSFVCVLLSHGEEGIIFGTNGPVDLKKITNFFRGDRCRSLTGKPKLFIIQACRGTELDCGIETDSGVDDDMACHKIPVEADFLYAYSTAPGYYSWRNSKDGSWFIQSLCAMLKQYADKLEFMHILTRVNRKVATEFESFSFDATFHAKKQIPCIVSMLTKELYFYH

[1] = Luminescence Cell-Based Dose Response HTS to Identify Activators of Luciferase Translation or Activity in H4 […] Cells. [Related pubchem assays: 1829 (Project Summary), 1814 (Primary HTS)]
[2] = molecular target: T2, Tyrosine-protein phosphatase non-receptor type 22 (Homo sapiens, UniProt Q9Y2R2);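 note: confirmatory dose-response retest of primary uHTS hits for inhibition of LYP phosphatase, measured by a fluorescence intensity read-out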
T2 sequence (Q9Y2R2 whole entry): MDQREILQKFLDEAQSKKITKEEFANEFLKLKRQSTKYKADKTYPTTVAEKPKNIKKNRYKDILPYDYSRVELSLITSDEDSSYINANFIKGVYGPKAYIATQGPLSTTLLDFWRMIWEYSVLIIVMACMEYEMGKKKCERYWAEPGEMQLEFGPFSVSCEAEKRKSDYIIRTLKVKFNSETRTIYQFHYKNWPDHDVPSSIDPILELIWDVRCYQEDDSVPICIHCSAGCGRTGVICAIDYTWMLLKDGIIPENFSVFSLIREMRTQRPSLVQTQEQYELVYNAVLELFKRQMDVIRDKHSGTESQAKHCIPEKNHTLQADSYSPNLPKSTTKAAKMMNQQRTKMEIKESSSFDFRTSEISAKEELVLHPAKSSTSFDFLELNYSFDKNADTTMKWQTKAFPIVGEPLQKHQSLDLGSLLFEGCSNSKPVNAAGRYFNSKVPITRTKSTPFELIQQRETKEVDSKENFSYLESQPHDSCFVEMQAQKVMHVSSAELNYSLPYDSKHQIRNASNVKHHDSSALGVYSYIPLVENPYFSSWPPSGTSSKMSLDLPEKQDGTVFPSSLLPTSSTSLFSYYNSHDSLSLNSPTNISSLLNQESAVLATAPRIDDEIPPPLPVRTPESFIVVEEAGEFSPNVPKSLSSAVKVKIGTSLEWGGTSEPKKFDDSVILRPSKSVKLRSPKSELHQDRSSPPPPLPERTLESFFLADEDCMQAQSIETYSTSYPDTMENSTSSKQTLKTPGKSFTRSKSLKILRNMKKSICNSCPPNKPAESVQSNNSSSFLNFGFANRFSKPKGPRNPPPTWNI

[3] = molecular target: T3, Tyrosine-protein phosphatase non-receptor type 12 (Homo sapiens, UniProt Q05209); test: SAR Selectivity Analysis of small molecule inhibitors of PEST using pCAP in a fluorescence assay. [Related pubchem assays (depositor defined):AID1779, AID1784, AID2135]
T3 sequence (Q05209 whole entry): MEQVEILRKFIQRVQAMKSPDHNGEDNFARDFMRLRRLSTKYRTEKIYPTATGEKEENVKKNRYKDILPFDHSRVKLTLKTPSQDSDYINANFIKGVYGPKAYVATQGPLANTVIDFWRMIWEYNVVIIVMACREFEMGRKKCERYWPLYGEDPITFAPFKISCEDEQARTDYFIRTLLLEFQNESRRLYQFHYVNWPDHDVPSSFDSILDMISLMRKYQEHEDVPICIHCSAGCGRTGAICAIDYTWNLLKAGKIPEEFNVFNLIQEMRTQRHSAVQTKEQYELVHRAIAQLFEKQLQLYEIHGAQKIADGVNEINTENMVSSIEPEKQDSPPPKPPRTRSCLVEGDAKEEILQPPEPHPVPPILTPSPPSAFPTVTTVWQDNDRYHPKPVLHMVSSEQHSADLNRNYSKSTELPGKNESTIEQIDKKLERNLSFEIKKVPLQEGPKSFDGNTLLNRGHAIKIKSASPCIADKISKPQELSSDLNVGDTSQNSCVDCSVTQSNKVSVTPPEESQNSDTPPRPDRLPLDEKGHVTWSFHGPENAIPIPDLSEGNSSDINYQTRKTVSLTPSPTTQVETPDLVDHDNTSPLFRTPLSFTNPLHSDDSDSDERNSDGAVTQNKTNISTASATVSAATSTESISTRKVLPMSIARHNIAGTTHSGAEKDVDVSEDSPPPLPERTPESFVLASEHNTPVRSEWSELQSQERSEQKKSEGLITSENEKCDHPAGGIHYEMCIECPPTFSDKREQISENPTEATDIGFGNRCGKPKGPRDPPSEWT

[4] = molecular target: T4, Tyrosine-protein phosphatase non-receptor type 7 (Homo sapiens, UniProt P35236); test: HePTP (PTPN7) phosphatase inhibitor potency, SAR follow-up, biochemical, set 2 (AID 449736)
T4 sequence (P35236 whole entry): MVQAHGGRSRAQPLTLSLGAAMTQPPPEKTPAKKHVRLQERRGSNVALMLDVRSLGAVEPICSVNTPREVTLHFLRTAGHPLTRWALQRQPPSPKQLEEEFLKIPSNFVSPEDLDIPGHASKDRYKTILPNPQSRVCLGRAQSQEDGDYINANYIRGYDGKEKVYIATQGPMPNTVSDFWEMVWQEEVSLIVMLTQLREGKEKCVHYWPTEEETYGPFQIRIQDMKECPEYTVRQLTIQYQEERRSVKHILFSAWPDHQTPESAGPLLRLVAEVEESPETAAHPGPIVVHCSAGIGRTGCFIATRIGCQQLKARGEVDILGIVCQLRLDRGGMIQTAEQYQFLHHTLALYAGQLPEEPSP

[5] = molecular target: T4, Tyrosine-protein phosphatase non-receptor type 7; test: HTS HePTP Fluorescent Assay using OMFP substrate for In Vitro dose response studies. [Related pubchem assays (depositor defined):AID1059, AID1077, AID1784, AID2068, AID2085, AID435032, AID521]

Row | SMILES | IC50 (Caspase-3) | EC50 [1] | IC50 [2] | IC50 [3] | IC50 [4] | IC50 [5]
1 | COc1ccc(Nc2ccc3c(c2)=NC2(CCCCC2)[N+]=3[O-])cc1 | 88.4 µM (active) | > 120 µM (not active) |  |  |  | 
2 | COc1ccc(/C=C2\SC(=S)N(CCC(=O)Nc3ccc(C(=O)O)cc3)C2=O)cc1OC |  |  | 2.75 µM (active) | 1.13 µM (active) | 0.312 µM (active) | 5.64 µM (active)
